Assay results from patent US5696164A, “Antifungal treatment of nails” (Johnson & Johnson Consumer Products, Inc., priority 1994, dated 1997).
Values after ≈ are worked out from the molar mass of the structure shown. Structures can show the parent of a compound that is named as a salt.

Key:
[1] = rats; skin pretreated with aqueous calcium thioglycolate solution; cited from earlier work
[2] = Nail swelling-pH profile (urea/propylene carbonate/propylene glycol/N-acetyl-l-cysteine/water); parameters: species or system human; details: FIG. 8; pH 3.2-7.0, 32 °C
Method: (§1) The experimental procedure was the following: Clean human nail clippings were equilibrated to a constant weight by placing them in a desiccator over saturated CaCl2.6H2 O solution (29% relative humidity at room temperature) for at least 48 hours before use. Approximately 30 mg of human nail clippings were weighed into a glass vial. The exact initial weight was recorded. Four grams of the test formulation (pre-warmed to 32° C.) was added into the vial and maintained at 32° C. under stirring in a Heating/Stirring Module (Reacti-Therm III, Pierce). The changes in nail weights were monitored at predetermined intervals over 48 hours. At the end of the swelling experiment, the nail sample was rinsed with a mixture of N,N-dimethylformamide and methanol (1:1) to remove surface-bound drug. The nail sample was then digested, and the drug concentration in nail was determined by high pressure liquid chromatography method as described by Badcock and Davies, Assay of itraconazole in nail clippings by reversed phase, high performance liquid chromatography, Ann. Clin. Biochem, 27 (1990) 506-508.
It should be noted that, unlike the itraconazole formulations discussed above, which were tested at pH 3, the pH value of the miconazole nitrate formulation was set at pH 9. […] This was confirmed by the swelling-pH profile shown in FIG. 8, using the following formulation: […]

[3] = calcium thioglycolate added directly into ointment; cited from earlier work
[4] = after nail avulsion; cited from earlier work
[5] = Miconazole nitrate partitioning into nail; format: in vitro ADME, human; details: FIG. 7; 1% miconazole nitrate, 20% urea, 10% N-acetyl-l-cysteine cream, pH 9.0
Method: as §1
(§2) A nail swelling and drug partitioning experiment was also conducted for miconazole nitrate using procedures analogous to those described above. […]

[6] = Nail swelling in miconazole nitrate cream formulation; parameters: species or system human; details: FIG. 7; 1% miconazole nitrate, 20% urea, 10% N-acetyl-l-cysteine cream, pH 9.0
Method: as §1, §2

[7] = Effect of urea on nail swelling/hydration in aqueous urea solutions; parameters: species or system human; details: pH 4.5
Method: as §1
The effect of urea on nail swelling was investigated, using aqueous urea solutions of various concentrations at pH 4.5. […] For this reason, it is believed that the use of urea alone will not cause significant enhancement of drug permeation through the nail.

[8] = prior to topical treatment of onychomycosis; cited from earlier work
[9] = Nail swelling of human nail clippings in itraconazole formulations; details: FIG. 3a, 32 °C, 48 h
Method: The experimental procedure was the following: Clean human nail clippings were equilibrated to a constant weight by placing them in a desiccator over saturated CaCl2.6H2 O solution (29% relative humidity at room temperature) for at least 48 hours before use. Approximately 30 mg of human nail clippings were weighed into a glass vial. The exact initial weight was recorded. Four grams of the test formulation (pre-warmed to 32° C.) was added into the vial and maintained at 32° C. under stirring in a Heating/Stirring Module (Reacti-Therm III, Pierce). The changes in nail weights were monitored at predetermined intervals over 48 hours. […]
The nail swelling was expressed by the percentage of the initial nail weight (i.e., 100% of the initial nail weight means no swelling, and 200% means a nail swelling doubling the original weight, etc). An enhancement factor is used to show the increase in nail swelling due to the presence of nail penetration enhancer in comparison to the control, which were calculated according to the formula: enhancement factor=(% weight gain of the test nail sample)/(% weight gain of control nail sample, i.e., no enhancer & urea in the formulation). […] The drug concentration in nail was calculated by dividing the amount of the drug in nail (mg) by the weight of the initial nail clipping (i.e., dry nail weight in gram). […]

yeasts = details: "as low as"; cited from earlier work
[10] = as the formulation pH increases; cited from earlier work
dermatophites = details: "as low as"; cited from earlier work

In the case of insulin, the transdermal drug permeation [1] is given as “enhanced transdermal drug permeation”.

With `CC(=O)N[C@@H](CS)C(=O)O` [N-acetyl-l-cysteine, N-Acetyl-l-cysteine] the “working pH range” value [2] was “wide working pH range”.

In the case of `COc1ccc2c(c1)c(CC(=O)O)c(C)n2C(=O)c1ccc(Cl)cc1` [calcium salt of indomethacin, indomethacin], the drug absorption [3] is given as “dramatically decreased the absorption”.

In the case of `Clc1ccc(COC(Cn2ccnc2)c2ccc(Cl)cc2Cl)c(Cl)c1` (centres unmarked) [miconazole], the “efficacy in topically treating onychomycosis” value [4] is given as “effective”.

For `Clc1ccc(COC(Cn2ccnc2)c2ccc(Cl)cc2Cl)c(Cl)c1` (centres unmarked) [miconazole nitrate], the “miconazole partitioning into the nail” value [5] was “substantial miconazole partitioning into the nail” and the nail swelling [6] was “significant nail swelling”.

In the case of `NC(N)=O` [urea], the nail hydration ([7]; 20% aqueous urea) is given as 30%, the nail hydration ([7]; 40% aqueous urea) is given as 50% and the “results of nonsurgical avulsion of nail dystrophies” value [8] is given as “satisfactory results”.

In the case of `N[C@@H](CS)C(=O)O` [l-cysteine], the “rank of nail swelling enhancement” value [9] is reported as “highest nail swelling enhancement”.

For `CCC(C)n1ncn(-c2ccc(N3CCN(c4ccc(OCC5COC(Cn6cncn6)(c6ccc(Cl)cc6Cl)O5)cc4)CC3)cc2)c1=O` (centres unmarked) [itraconazole], the “minimal inhibitory concentration (MIC)” value (yeasts) is given as 0.1 µg/mL (≈ 0.142 µM), the “solubility versus formulation pH” value [10] is given as “decreases” and the “minimal inhibitory concentration (MIC)” value (dermatophites) is given as 0.1 µg/mL (≈ 0.142 µM).

In the case of `CC(=O)N1CCN(c2ccc(OCC3COC(Cn4ccnc4)(c4ccc(Cl)cc4Cl)O3)cc2)CC1` (centres unmarked) [ketoconazole], the “efficacy in topically treating onychomycosis” value [4] is listed as “effective”.
